The record followed here is ChEMBL document CHEMBL1201862, “PubChem BioAssay data set” (2004).

SMILES strings stand for the structures.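 48-hour exposure; five concentrations; linearly interpolated endpoints. Abbreviation: GI50, concentration required for 50% inhibition of growth.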 The source made the active and inactive calls. Rule as the data show it: active = GI50 up to about 1.1 µM and inactive = higher.

Assay in all cases: inhibition of tumour cell growth, NCI panel, 48 h
Assay [1] deals with SW-620.
Assay [2] concerns TK-10.
The subject of assay [3] is COLO 205.
Assay [4] deals with UO-31.
Assay [5] deals with SNB-75.
For assay [6], the system named is RPMI-8226.
Assay [7] concerns OVCAR-5.
The test system of assay [8] is OVCAR-8.
Assay [9] relates to MCF7.
Assay [10] has as its system MDA-MB-435.
For assay [11], the system named is NCI-H23.
Assay [12] deals with SF-295.
For assay [13], the system named is CAKI-1.
For assay [14], the system named is SR.
The test system of assay [15] is K562.
The test system of assay [16] is HOP-92.
The subject of assay [17] is A549.
Assay [18] relates to DU-145.
For assay [19], the system named is HCC 2998.

As for `CCOc1cc2c(c(OCC)c1O)CC[C@@H]1[C@@H]2CC[C@]2(C)[C@@H](O)CC[C@@H]12`, the GI50 was 1.22 µM (inactive) in [1]; 25.3 µM (inactive) in assay [2]; 20.5 µM (inactive) in assay [3]; 9.27 µM (inactive) in assay [4]; 0.587 µM (active) in assay [5]; 2.74 µM (inactive) in assay [6]. In addition, the GI50 is 10.7 µM (inactive) in assay [7]; 7.59 µM (inactive) in assay [8]; 0.505 µM (active) in assay [9]; 0.203 µM (active) in [10]; 4.2 µM (inactive) in assay [11]; 0.693 µM (active) in assay [12]. The GI50 in [13] was 0.746 µM (active); in assay [14], 0.331 µM (active); in assay [15] it was 0.329 µM (active); in assay [16] it was 18.7 µM (inactive); in assay [17] it was 7.11 µM (inactive).

Turning to `CC(=O)Oc1cc2c[n+](C)c3c4cc(OC(C)=O)c(OC(C)=O)cc4ccc3c2cc1OC(C)=O`, the GI50 in [1] was 3.31 µM (inactive); in assay [2] it was > 100 µM (inactive); in [3] it was 6.5 µM (inactive); in assay [4] it was 1.36 µM (inactive); in assay [6], > 20 µM (inactive); in assay [7] it was 17.3 µM (inactive). In addition, the GI50 in assay [18] is 3.78 µM (inactive); in assay [8], 2.73 µM (inactive); in assay [9] it was 3.17 µM (inactive); in [11], 4.23 µM (inactive); in assay [12] it was 4.72 µM (inactive); in assay [13], 4.48 µM (inactive). Moreover, the GI50 in [14] is 2.22 µM (inactive); in assay [16], 4.32 µM (inactive); in assay [17] it was 12.8 µM (inactive); in assay [19] it was 9.23 µM (inactive).

For `CN1C(=O)C(=CNc2ccccc2Cl)C(=O)N(C)C1=O`, the GI50 in [1] was > 100 µM (inactive); in assay [2] it was > 100 µM (inactive); in assay [3] it was > 100 µM (inactive); in [4], > 100 µM (inactive); in assay [5] it was > 100 µM (inactive); in assay [6], 16.9 µM (inactive). Also, the GI50 in assay [7] was 24.8 µM (inactive); in [8], > 100 µM (inactive); in assay [9], 24 µM (inactive); in assay [10], > 100 µM (inactive); in assay [11] it was > 100 µM (inactive); in assay [12], 17.7 µM (inactive). Further, the GI50 in [13] was > 100 µM (inactive); in assay [14], 19.4 µM (inactive); in [15] it was 22.2 µM (inactive); in [16], > 100 µM (inactive); in assay [17] it was 21.7 µM (inactive); in assay [19], 18.7 µM (inactive).

For the compound `Nc1ncnc2c1ncn2[C@@H]1C[C@H]1CO`, the GI50 in assay [1], in [4], in assay [6], in assay [7], in assay [8] and in assay [9] was > 100 µM (inactive) throughout. Moreover, the GI50 in assay [10] is > 10 µM (inactive); in [11] it was > 100 µM (inactive); in [12], > 100 µM (inactive); in assay [14], > 100 µM (inactive); in [15] it was > 100 µM (inactive); in [17] it was > 100 µM (inactive). Also, in [19], the GI50 was > 100 µM (inactive).

`Cc1ccc(/C=N/Nc2ncccn2)s1`: the GI50 in assay [1], in [2], in assay [3], in assay [4], in assay [5] and in assay [6] was > 100 µM (inactive) throughout. The GI50 in assay [7], in assay [8], in [9], in [10], in [11] and in [12] was > 100 µM (inactive) in each case. Moreover, the GI50 in [13] was > 100 µM (inactive); in assay [15], > 10 µM (inactive); in [16], > 100 µM (inactive); in [17], > 100 µM (inactive); in assay [19], > 100 µM (inactive).

On to `CCOP(C)(=O)C(Nc1ccc(F)cc1)c1ccc(F)cc1` (configuration not stated), for which the GI50 in [1] is > 100 µM (inactive); in assay [2], > 100 µM (inactive); in [3], > 100 µM (inactive); in assay [4] it was 71.3 µM (inactive); in [6], > 100 µM (inactive); in assay [7], > 100 µM (inactive). In addition, the GI50 in assay [18], in [8], in assay [10], in assay [11], in assay [12] and in [13] was > 100 µM (inactive) each time. In addition, the GI50 in assay [14], in assay [15], in assay [16], in [17] and in [19] was > 100 µM (inactive) each time.

Take `FC1=C2C3CCC(C3)C2C1(F)F` (configuration not stated): the GI50 in assay [1], in assay [2], in assay [3], in assay [4], in assay [5] and in assay [6] was > 100 µM (inactive) throughout. Further, the GI50 in assay [7], in assay [18], in [8], in [9], in assay [10] and in assay [11] was > 100 µM (inactive) each time. The GI50 in assay [12], in assay [13], in assay [15], in assay [17] and in [19] was > 100 µM (inactive) in each case.

In the case of `CC(C)=C/C=C1/CS(=O)(=O)C=C1C`, the GI50 in assay [1], in assay [2], in [3], in assay [4], in [5] and in [6] was > 100 µM (inactive) throughout. Also, the GI50 in assay [7], in [18], in assay [8], in assay [9], in assay [10] and in [11] was > 100 µM (inactive) each time. For the same compound, the GI50 in assay [12], in assay [13], in assay [15], in assay [17] and in [19] was > 100 µM (inactive) each time.

For the compound `CN1c2ccccc2S(=O)(=O)n2c(COc3ccccc3)nnc21`, the GI50 in assay [1], in assay [2], in assay [3], in [4], in [7] and in [18] was > 100 µM (inactive) in each case. Further, the GI50 in assay [8] is > 100 µM (inactive); in assay [9] it was > 100 µM (inactive); in assay [10], > 100 µM (inactive); in assay [11], > 100 µM (inactive); in assay [12], 45.7 µM (inactive); in [13], > 100 µM (inactive). The GI50 is > 100 µM (inactive) in assay [15], 56.5 µM (inactive) in assay [16], > 100 µM (inactive) in [17] and > 100 µM (inactive) in assay [19].

As to `CCOC(=O)C1CCCc2sc(N)c(C#N)c21` (configuration not stated), the GI50 in assay [1], in [2], in assay [3], in assay [4], in assay [5] and in assay [6] was > 100 µM (inactive) each time. Moreover, the GI50 in assay [7], in assay [8], in assay [9], in [11], in [14] and in assay [15] was > 100 µM (inactive) in each case. Moreover, the GI50 in assay [16] is 70.6 µM (inactive); in [17] it was > 100 µM (inactive); in assay [19] it was > 100 µM (inactive).

On to `CCN(CCN(CC)C(=O)Nc1ccccc1)C(=O)Nc1ccccc1`, for which the GI50 in [1], in [2], in assay [3], in assay [4], in assay [5] and in [6] was > 100 µM (inactive) in each case. Further, the GI50 in assay [7], in assay [18], in assay [8], in assay [9], in [11] and in assay [12] was > 100 µM (inactive) each time. In addition, the GI50 in assay [14], in assay [15], in assay [16], in [17] and in assay [19] was > 100 µM (inactive) in each case.

On to `COc1ccc(C2SCC(=O)N2c2ccc(-n3c(-c4ccccc4)nc4ccccc4c3=O)cc2)cc1OC` (configuration not stated), for which the GI50 is > 100 µM (inactive) in assay [1]; > 100 µM (inactive) in [2]; > 100 µM (inactive) in [3]; 12.9 µM (inactive) in assay [4]; 3.11 µM (inactive) in [5]; > 100 µM (inactive) in assay [6]. In addition, the GI50 in [7], in assay [8], in assay [9], in [10], in assay [11] and in assay [12] was > 100 µM (inactive) in each case. In addition, the GI50 in assay [13], in [14], in assay [15], in assay [17] and in assay [19] was > 100 µM (inactive) in each case.
